Data reported in US6410041B1, “Culturing cells in presence of amphipathic weak bases and/or cations and multiple drug resistance inhibitor containing reserpine” (priority 1998, dated 2002).
In brackets after ≈: the same amount, converted by molar mass. Like-named read-outs stand apart in the source and are kept apart here.

Columns and labels:
[1] = system: Staphylococcus aureus RN 4222 (WT); assay: MIC determination in wild type S. aureus; assay type: cell-based
Experimental: (§1) Determination of minimal inhibitory concentrations (MICs). MICs were determined by serial two-fold dilution of antimicrobials in Mueller-Hinton broth containing chloramphenicol ([…]). […] Around 10^5 cells were inoculated in 1 ml of medium for the test. MICs were read after 18 hours of incubation at 37 C. with aeration. The 50% inhibitory concentration (IC50) was determined by growing cells in microtiter plate wells and reading the optical density after overnight growth at 650 nm.

S. aureus = assay: MICs of antimicrobials with small molecule MDR inhibitor (I) and high pH; assay type: cell-based, Staphylococcus aureus; conditions: for Potentiation factor (pH 7/(pH 9 + I)): pH 7 vs pH 9 + I; for substrate of MDR pumps: cationic plant antimicrobial alkaloids
Experimental: as §1

[2] = system: Staphylococcus aureus KLE 820 (norA−); assay: microbe, parasite or virus in culture; assay type: cell-based; conditions: for Sensitivity of norA- as compared to the wild type: in the absence of reserpine; for substrate of NorA: based on comparison of MIC from wild type and norA−
Description: Disruption of the norA gene. Chloramphenicol acetyltransferase (CAT) gene was isolated by digesting plasmid pLI50 (10) with Sau3A (New England Biolabs). The CAT gene was cloned into the BamHI site of plasmid pSP72 (Promega) to yield plasmid PCH22. Chromosomal DNA from S. aureus RN4220 was isolated according to the protocol of Qiagen, Inc. Part of the 1050 bp norA gene lacking a 80 bp N-terminus and a 20 bp C-terminus was PCR-amplified from chromosomal DNA using primer A:5′-[…]-[…] and primer B:5′-[…]. This fragment was cloned into the EcoRI/EcoRV site of PCH22 to yield plasmid PCH23. S. aureus were transformed by PCH23 using electroporation (11). Cells were plated on trypticase soy agar (TSA) with chloramphenicol. A transformant colony was picked after 24 hours of incubation at 37 C., regrown, plated on CAM medium and a large colony was picked for further work.
as §1

[3] = Staphylococcus aureus, RN 4222 (WT), −R (no reserpine), read-out: MIC
[4] = Staphylococcus aureus, pH 7, read-out: MIC
[5] = Staphylococcus aureus, pH 9, read-out: MIC
[6] = Staphylococcus aureus, pH 7.2, KLE 820 (norA−), pH 7.2
[7] = Staphylococcus aureus, pH 9, KLE 820 (norA−), pH 9
[8] = RN 4222 (WT), +R (20 μg/mL reserpine)
[9] = Staphylococcus aureus, KLE 820 (norA−), −R (no reserpine)

Benzalkonium Chloride
MIC ([1]; RN 4222 (WT), pH 7.2): 0.67 µg/mL | MIC ([1]; RN 4222 (WT), pH 9): 0.08 µg/mL | effect of pH 9 on sensitivity / effectiveness ([1]; change of pH from 7 to 9): significantly increased the effectiveness | MIC (S. aureus; pH 7): 0.67 µg/mL | MIC (S. aureus; pH 7 + I (10 μg/mL)): 0.08 µg/mL | Ratio (S. aureus; pH 7 vs pH 7 + I): 8.3 | Potentiation factor (pH 7/(pH 9 + I)) (S. aureus): 134 | MIC (S. aureus; pH 9): 0.16 µg/mL | MIC (S. aureus; pH 9 + I): <0.005 µg/mL | Ratio (S. aureus; pH 9 vs pH 9 + I): 32 | MIC ([2]; KLE 820 (norA−), pH 7.2): 0.16 µg/mL | MIC ([2]; KLE 820 (norA−), pH 9): 0.0104 µg/mL | Sensitivity norA− at pH 9 vs. WT at pH 7.2 [2]: 64

CC(=O)OCC1=C(C(=O)O)N2C(=O)[C@@H](NC(=O)Cc3cccs3)[C@H]2SC1 [Cephalothin]
MIC [1, 3]: 0.15 µg/mL (≈ 0.378 µM) | Sensitivity of norA- as compared to the wild type [2]: 1

COc1cc2c(cc1OC)-c1cc3ccc(OC)c(OC)c3c[n+]1CC2 [Palmatine]
MIC ([1]; RN 4222 (WT), pH 7.2): 200 µg/mL | MIC ([1]; RN 4222 (WT), pH 9): 12.5 µg/mL | substrate of MDR pumps (S. aureus): good substrates of MDR pumps | MIC (S. aureus; pH 7): 100 µg/mL | MIC (S. aureus; pH 7 + I (10 μg/mL)): 1.6 µg/mL | Potentiation factor (pH 7/(pH 9 + I)) (S. aureus): 1,250 | MIC (S. aureus; pH 9): 25 µg/mL | MIC (S. aureus; pH 9 + I): 0.08 µg/mL | MIC ([2]; KLE 820 (norA−), pH 7.2): 50 µg/mL | MIC ([2]; KLE 820 (norA−), pH 9): 0.78 µg/mL | substrate of NorA [2]: substrates of NorA

Gentamycin
MIC ([1]; RN 4222 (WT), −R (no reserpine)): 0.62 µg/mL | MIC ([2]; KLE 820 (norA−), −R (no reserpine)): 0.62 µg/mL | Sensitivity of norA- as compared to the wild type [2]: 1

C[n+]1cc2c3c(ccc2c2ccc4cc5c(cc4c21)OCO5)OCO3 [Sanguinarine]
MIC (S. aureus; [4]): 2.5 µg/mL | MIC (S. aureus; [5]): 1.25 µg/mL | potentiation by high pH and MDR inhibitor (S. aureus; high pH combined with MDR inhibitor / MDR inactivation): approximately 100 fold | MIC (S. aureus; pH 7 + I (10 μg/mL)): 0.67 µg/mL | Ratio (S. aureus; pH 7 vs pH 7 + I): 3.7 | Potentiation factor (pH 7/(pH 9 + I)) (S. aureus): 16.6 | MIC (S. aureus; pH 9 + I): 0.15 µg/mL | Ratio (S. aureus; pH 9 vs pH 9 + I): 8.3

COc1ccc2cc3[n+](cc2c1OC)CCc1cc2c(cc1-3)OCO2 [Berberine]
MIC ([1]; Staphylococcus aureus, RN 4222 (WT), pH 7.2, read-out: MIC): 60 µg/mL | MIC ([1]; Staphylococcus aureus, RN 4222 (WT), pH 9, read-out: MIC): 3.75 µg/mL | MIC (S. aureus; [4]): 60 µg/mL | MIC (S. aureus; [5]): 7.5 µg/mL | MIC (S. aureus; Staphylococcus aureus, MDR inhibitor and high pH, read-out: MIC): 0.012 µg/mL | substrate of MDR pumps (S. aureus): good substrates of MDR pumps | MIC (S. aureus; pH 7 + I (10 μg/mL)): 0.4 µg/mL | Ratio (S. aureus; pH 7 vs pH 7 + I): 150 | Potentiation factor (pH 7/(pH 9 + I)) (S. aureus): 4,800 | MIC (S. aureus; pH 9 + I): 0.0125 µg/mL | Ratio (S. aureus; pH 9 vs pH 9 + I): 600 | increase in potency by MDR inhibitor (S. aureus; proprietary MDR inhibitor (I), Table 3, pH 7): 150 fold | MIC [2, 6]: 7.5 µg/mL | MIC [2, 7]: 0.23 µg/mL | substrate of NorA [2]: substrates of NorA | increase in sensitivity, pH 9 combined with norA mutation ([2]; norA− at pH 9 vs wild type at neutral pH): 260 fold | Sensitivity norA− at pH 9 vs. WT at pH 7.2 [2]: 260 | increase in sensitivity by norA mutation ([2]; norA− vs wild type): 32 fold

O=C(O)c1cn(C2CC2)c2cc(N3CCNCC3)c(F)cc2c1=O [Ciprofloxacin]
MIC [1, 8]: 0.33 µg/mL (≈ 0.996 µM) | MIC [1, 3]: 0.67 µg/mL (≈ 2.02 µM)

CCC[C@@H]1C[C@@H](C(=O)N[C@@H]([C@H]2O[C@H](SC)[C@H](O)[C@@H](O)[C@H]2O)[C@@H](C)O)N(C)C1 [Lincomycin]
MIC [1, 3]: 0.6 µg/mL (≈ 1.48 µM) | Sensitivity of norA- as compared to the wild type [2]: 1

[Br-].c1ccc([P+](c2ccccc2)(c2ccccc2)c2ccccc2)cc1 [TPP, tetraphenylphosphonium bromide]
MIC [1, 8]: 7.8 µg/mL | MIC ([1]; Staphylococcus aureus): 15.6 µg/mL | MIC ([1]; Staphylococcus aureus, pH 7.2): 15.6 µg/mL | MIC ([1]; Staphylococcus aureus, pH 9): 0.48 µg/mL | MIC ([2]; KLE 820 (norA−), +R (20 μg/mL reserpine)): 1.9 µg/mL | MIC [2, 9]: 1.9 µg/mL | MIC [2, 6]: 1.98 µg/mL | MIC [2, 7]: 0.12 µg/mL | Sensitivity of norA- as compared to the wild type [2]: 8 | Sensitivity norA− at pH 9 vs. WT at pH 7.2 [2]: 130

CCC[C@@H]1C[C@@H](C(=O)N[C@@H]([C@H]2O[C@H](SC)[C@H](O)[C@@H](O)[C@H]2O)[C@H](C)Cl)N(C)C1 [Clindamycin]
MIC [1, 3]: 0.047 µg/mL (≈ 0.111 µM) | Sensitivity of norA- as compared to the wild type [2]: 1

CC[C@H]1OC(=O)[C@H](C)[C@@H](O[C@H]2C[C@@](C)(OC)[C@@H](O)[C@H](C)O2)[C@H](C)[C@@H](O[C@@H]2O[C@H](C)C[C@H](N(C)C)[C@H]2O)[C@](C)(O)C[C@@H](C)C(=O)[C@H](C)[C@@H](O)[C@]1(C)O [Erythromycin]
MIC ([1]; Staphylococcus aureus): 0.195 µg/mL (≈ 0.266 µM) | MIC [2, 9]: 0.195 µg/mL (≈ 0.266 µM) | Sensitivity of norA- as compared to the wild type [2]: 1
